Laboratory results from patent US20130310396A1, “THIAZOLIDINE DERIVATIVES AND THEIR THERAPEUTIC USE” (priority 2011, published 2013).

Experiment: in vitro
Assay type: in vitro ADME
Settings: human liver microsomes, 0.5 mg/mL microsomal protein, 1 mM NADPH, 37° C., N=1; for half-life: both sexes
Procedure: The liver microsomes stability of compounds of Examples 1, 4 and 5 were compared with Teneligliptin.
The metabolic stability of compounds of the invention was tested using pooled liver microsomes prepared from mixed-gender humans, with 1 mM NADPH. The samples were analyzed using an LTQ-Orbitrap XL mass spectrometer. HRMS was used to determine the peak area response ratio (peak area corresponding to test compound or control divided by that of an analytical internal standard) without running a standard curve. HRMS scan was performed in an appropriate m/z range in order to detect all plausible metabolites.
The assay was run with a single incubation (N=1). Incubated test compounds at 37° C. in a buffer solution containing 0.5 mg/mL microsomal protein. Initiated the reaction by adding cofactors, sampling at 0, 10, 20, 30, and 60 minutes. Incubated positive control (5 μM testosterone) in parallel and sampling at 0, 5 10, and 30 minutes.
The control compound testosterone was run in parallel to verify the enzymatic activity of the microsomes. After the final time point, fluorimetry was used to confirm the addition of NADPH to the reaction mixture. T1/2 of control met the internal acceptance criteria.
Column: Thermo BDS Hypersil C18 30×2.0 mm, 3 μm, with guard column M.P. Buffer: 25 mM ammonium formate buffer, pH 3.5 Aqueous Reservoir (A): 90% water, 10% buffer Organic Reservoir (B): 90% acetonitrile, 10% buffer

Structure (SMILES)	half-life [h]	Percentage Remaining 0 min [%]	Percentage Remaining 10 min [%]	Percentage Remaining 20 min [%]	Percentage Remaining 30 min [%]	Percentage Remaining 60 min [%]
[2H]C1([2H])CSC([2H])([2H])N1C(=O)C1CC(N2CCN(c3cc(C)nn3-c3ccccc3)CC2)CN1 [Example 1, ((2S,4S)-4-(4-(3-Methyl-1-phenyl-1H-pyrazol-5-yl)piperazin-1-yl)pyrrolidin-2-yl)(2,2,4,4-D4-thiazolidin-3-yl)methanone]	> 1	100	92	85	70	60
[2H]c1ccc(-n2nc(C)cc2N2CCN([C@@H]3CN[C@H](C(=O)N4CCSC4)C3)CC2)cc1 [Example 4, ((2S,4S)-4-(4-(1-(4-D-Phenyl)-3-methyl-1H-pyrazol-5-yl)piperazin-1-yl)pyrrolidin-2-yl)(thiazolidin-3-yl)methanone]	> 1	100	95	87	75	65
[2H][C@@]1(N2CCN(c3cc(C)nn3-c3ccccc3)CC2)CN[C@H](C(=O)N2CCSC2)C1 [Example 5]	> 1	100	90	87	70	60
Cc1cc(N2CCN([C@@H]3CN[C@H](C(=O)N4CCSC4)C3)CC2)n(-c2ccccc2)n1 [Teneligliptin, ((2S,4S)-4-(4-(3-methyl-1-phenyl-1H-pyrazol-5-yl)piperazin-1-yl)pyrrolidin-2-yl)(thiazolidin-3-yl)methanone, reference compound]	> 1	100	90	85	65	55
